Assays:
[1] = tested on: hGLP1R^A316T-SmBiT versus hGLP1R^WT-SmBiT; test: β-arrestin 2 recruitment by NanoBiT complementation; format: cell-based, rat
Procedure: For mini-Gs recruitment, INS-1 832/3 Glp1r^−/− cells were seeded in 6-cm dishes and transiently cotransfected with 1.7 μg each of hGLP1R^WT or ^A316T-SmBiT and LgBiT-mini-Gs constructs for 24 hours. Cells were then detached, resuspended in Hanks’ balanced salt solution (HBSS) containing NanoGlo Live Cell Reagent (1:20; Promega) with furimazine, and seeded onto white 96-well half-area plates. Baseline luminescence was immediately recorded over 8 min at 37°C in a Flexstation 3 plate reader (Molecular Devices) and for a further 30 min after GLP-1RA addition at serial doses up to 100 nM. Readings were taken every 30 s and normalized to average well baseline, and average vehicle-induced signal was subtracted to establish the agonist-induced effect. To measure β-arrestin 2 recruitment, cells were processed as above with slight modifications: INS-1 832/3 Glp1r^−/− cells were cotransfected with 1.77 μg each of hGLP1R^WT or ^A316T-SmBiT and LgBiT–β-arrestin 2 plasmids for 24 hours, and GLP-1RAs were added at serial doses up to 1 μM. AUCs were calculated for each agonist concentration and fitted to log(agonist) versus response four-parameter curves using GraphPad Prism 10.1.2, with errors propagated for mini-Gs over β-arrestin 2 recruitment bias calculations.

[2] = tested on: SNAP/FLAG-hGLP1R^A316T versus ^WT; test: High content microscopy GLP-1R internalization assay; format: cell-based, rat; details: INS-1 832/3 sublines; 5-60 min; AUC; n = 3; Fig. 7G
Procedure: INS-1 832/3 Glp1r^−/− SNAP/FLAG-hGLP1R^WT or ^A316T cells were seeded onto poly-D-lysine–coated black 96-well plates for 24 hours before the assay. Cells were labeled for 30 min with 1 μM SNAP surface cleavable BG-SS-649 probe at 37°C and washed once with HBSS before treatment with GLP-1RA or vehicle for 60, 30, 15, or 5 min at 37°C in complete medium. Cells were then washed with cold HBSS, and subsequent steps were carried out at 4°C. The cell-impermeable reducing agent Mesna {100 mM in alkaline tris-NaCl-EDTA (TNE) buffer [20 mM tris-HCl, 1 mM EDTA, and 150 mM NaCl (pH 8.6)]} or alkaline TNE buffer without Mesna was applied for 5 min to cleave BG-SS-649 probe left at the cell surface and then washed with HBSS. […] Internalized GLP-1R, indicated by cell-associated fluorescence, was analyzed after flat-field correction of fluorescent images using the BaSiC plugin ([96]), segmentation of cell-containing regions from phase contrast images using Phantast ([97]), and fluorescence intensity quantification. The percentage of internalized receptor was calculated as follows F+Me(tx)/F−Me(tx)−F+Me(t0)/F−Me(t0)/1−F+Me(t0)/F−Me(t0) where F+Me and F−Me are mean fluorescence intensities ± Mesna at times tx (5, 15, 30, or 60 min) or t0 (0 min). […]

Row | Substance | Agonist-induced recruitment of β-arrestin 2, A316T versus WT, log(Emax/EC50) ([1]; serial doses up to 1 μM, n = 5, Fig. 7M) | β-arrestin 2 over Gαs signaling bias, A316T versus WT ([1]; Δlog(Emax/EC50) βarr2 − mini-Gs, Fig. 7N) | A316T GLP-1R internalization versus WT [2]
1 | exendin-F1 | near-significant reduction | significant shift toward Gαs recruitment | –
2 | GLP-1(7-36)NH2 | – | – | significantly increased

From paper PMC13267291, “In vivo functional profiling and structural characterization of the human GLP1R A316T variant” (Science Advances, 2026)
